Experimental data from patent US12616203B2, “Use of 3-isoxazolidinones compounds as selective herbicides” (FMC Corporation, priority 2014, dated 2026).

Legend:
[1] = system: littleseed canarygrass (LC); test: Ex2 PRE greenhouse, % control; assay type: in vivo, Phalaris minor; conditions: 28 DAT, g ai/ha by row: r12-40 2,4-DC 31.25/62.5/125/250/375 (3 rows each) + metazachlor 250/500/750 (cycling)
Description: Fiber flats designated for treatment were placed in a spray chamber having a static platform and a movable sprayer and height of the spray nozzle was 10.5 inches above the soil level. Once the sprayer was calibrated using water for spray volume of 30 gallons per acre, flats were sprayed with sprayer at a speed to receive a coverage equivalent of 30 gallons per acre. […] The pre-emergence flats were immediately placed in the greenhouse and watered lightly after treatment. Thereafter they were regularly watered and fertilized for the duration of the test.

weeds = test: Ex18 PRE greenhouse; assay type: in vivo; conditions: weed and rate in the words
Description: Additional treatments included application of metazachlor (Butisan®, 43.1%) at 750 g ai/ha, napropamide (Devrinol DF®, 50%) at 1260 g ai/ha, and dimethachlor (Teridox®, 48%) at 1000 g ai/ha. […] Treatments were applied just after the seeding of annual bluegrass, cheat, wild oat, quackgrass, field violet, blackgrass, littleseed canarygrass, silky windgrass, yellow foxtail, and goosegrass. […] Flats were watered and fertilized routinely after treatment application. Each treatment was replicated three times.

weeds; Wheat and canola = test: Ex27 PRE greenhouse; assay type: in vivo; conditions: weed and rate in the words
Description: The weeds tested in this study were Italian ryegrass (Lolium perenne. multiflorum, LOLMU), wild mustard (Sinapis arvensis, SINAR), annual bluegrass (Poa annua POAAN), wild oat (Avena fatua, AVEFA), blackgrass (Alopecurus myosuroides, ALOMY), common lambsquarters (Chenopodium album […] (Phalaris minor, PHAMI), common chickweed (Stellaria media, STEME), corn poppy (Papaver rhoeas PAPRH). The crops tested were Wheat and canola. […] Treatments were applied before the emergence of Italian ryegrass, wild oat, blackgrass, littleseed canarygrass, common chickweed, common lambsquarters, corn poppy, wild mustard, annual bluegrass, canola, and wheat. […] Flats were watered and fertilized routinely after treatment application. […] Wheat and corn poppy were rated at 14 and 21 DAT only.

corn poppy (CP) = test: Ex2 PRE greenhouse, % control; assay type: in vivo, Papaver rhoeas; conditions: 21 DAT, g ai/ha by row: r12-40 2,4-DC 31.25/62.5/125/250/375 (3 rows each) + metazachlor 250/500/750 (cycling), r42-46 2,4-DC 31.25/62.5/125/250/375, r47-49 metazachlor 250/500/750
Method: (§1) Test compositions containing 2,4 DC Example 1B and metazachlor (Butisan® S, 43.1% active ingredient, BASF) and mixtures of 2-(2,4-dichlorophenyl)methyl-4,4-dimethyl-3-isoxazolidinone and metazachlor, were diluted with water to provide the appropriate test rate concentrations.
(§2) The test crops were wheat and canola (Brassica napus), the test weeds were Italian ryegrass (IR) (Lolium perenne. multiflorum), annual bluegrass (AB) (Poa annua), common lambsquarters (CL) (Chenopodium album), littleseed canarygrass (LC) (Phalaris minor), common chickweed (CC) (Stellaria media), and corn poppy (CP) (Papaver rhoeas).
(§3) For pre-emergence testing, four disposable fiber flats (6″ by 10″) for each rate of application of each herbicide solution were filled with top soil, to which seeds of each species were planted in furrows made by a template pressed on the top of the soil. The furrows were covered with soil after planting the seed and were watered well before application of the test compounds. […]
(§4) The control of weeds was evaluated in each experimental test at 21 days after treatment (DAT) for corn poppy and wheat and 28 DAT for all other species. […]
(§5) Percent control was determined by a method similar to the 0 to 100 rating system disclosed in “Research Methods in Weed Science,” 2nd ed., B. Truelove, Ed.; Southern Weed Science Society; Auburn University, Auburn, Ala., 1977.

[2] = system: common lambsquarters (CL); test: Ex2 PRE greenhouse, % control; assay type: in vivo, Chenopodium album; conditions: 28 DAT, g ai/ha by row: r12-40 2,4-DC 31.25/62.5/125/250/375 (3 rows each) + metazachlor 250/500/750 (cycling), r42-46 2,4-DC 31.25/62.5/125/250/375, r47-49 metazachlor 250/500/750
Method: as §1, §2, §3, §4, §5

annual bluegrass (AB) = test: Ex2 PRE greenhouse, % control; assay type: in vivo, Poa annua; conditions: 28 DAT, g ai/ha by row: r12-40 2,4-DC 31.25/62.5/125/250/375 (3 rows each) + metazachlor 250/500/750 (cycling), r42-46 2,4-DC 31.25/62.5/125/250/375, r47-49 metazachlor 250/500/750
Method: as §1, §2, §3, §4, §5

common chickweed (CC) = test: Ex2 PRE greenhouse, % control; assay type: in vivo, Stellaria media; conditions: 28 DAT, g ai/ha by row: r12-40 2,4-DC 31.25/62.5/125/250/375 (3 rows each) + metazachlor 250/500/750 (cycling), r42-46 2,4-DC 31.25/62.5/125/250/375, r47-49 metazachlor 250/500/750
Method: as §1, §2, §3, §4, §5

Italian ryegrass (IR) = test: Ex2 PRE greenhouse, % control; assay type: in vivo, Lolium perenne. multiflorum; conditions: 28 DAT, g ai/ha by row: r12-40 2,4-DC 31.25/62.5/125/250/375 (3 rows each) + metazachlor 250/500/750 (cycling)
Method: as §1, §2
For pre-emergence testing, four disposable fiber flats (6″ by 10″) for each rate of application of each herbicide solution were filled with top soil, to which seeds of each species were planted in furrows made by a template pressed on the top of the soil. The furrows were covered with soil after planting the seed and were watered well before application of the test compounds.
Fiber flats designated for treatment were placed in a spray chamber having a static platform and a movable sprayer and height of the spray nozzle was 10.5 inches above the soil level. Once the sprayer was calibrated using water for spray volume of 30 gallons per acre, flats were sprayed with sprayer at a speed to receive a coverage equivalent of 30 gallons per acre. The application rates are those shown in Table 1 below for the individual herbicidal solutions and the herbicide compositions of the present invention. The pre-emergence flats were immediately placed in the greenhouse and watered lightly after treatment. Thereafter they were regularly watered and fertilized for the duration of the test.
The control of weeds was evaluated in each experimental test at 21 days after treatment (DAT) for corn poppy and wheat and 28 DAT for all other species. The results, shown as an average of the replications were compared with results observed in untreated control flats in the same tests.
as §5

[3] = r42-46 2,4-DC 31.25/62.5/125/250/375, r47-49 metazachlor 250/500/750, 250 g ai/ha
[4] = r42-46 2,4-DC 31.25/62.5/125/250/375, r47-49 metazachlor 250/500/750, 500 g ai/ha

Cc1cccc(C)c1N(Cn1cccn1)C(=O)CCl [Metazachlor, metazachlor]
% Control LC [1, 3]: 99% | % Control LC [1, 4]: 100% | weed control in words (weeds): controlled all weeds | weed control in words (weeds; Wheat and canola): alone controlled blackgrass at 750 g | % Control CP (corn poppy (CP)): 100% | % Control CL [2]: 100% | % Control AB (annual bluegrass (AB)): 100% | % Control CC (common chickweed (CC)): 100% | % Control IR (Italian ryegrass (IR); [3]): 96% | % Control IR (Italian ryegrass (IR); [4]): 98% | % Control IR (Italian ryegrass (IR); r42-46 2,4-DC 31.25/62.5/125/250/375, r47-49 metazachlor 250/500/750, 750 g ai/ha): 99%
